Here are results for ten compounds from patent US9422306B2, “Artemisinin compounds and synthesis and use thereof” (University of Washington Through Its Center for …, priority 2012, dated 2016).

The subject of one data set is BT474 cells. The experiment in a line: MTT cell viability assay, BT474 breast cancer cells. The conditions noted are these: for pIC50: read-out: BT474 IC50; for Selectivity BT474: values match MCF-10A IC50 / BT474 IC50, formula not given. The format is cell-based. The procedure:
(§1) In vitro toxicity of the compounds described herein were tested on two breast cancer cell lines, MDA-MB-231 and BT-474. These cell lines represent triple negative and HER2-positive breast cancers, respectively. BT474 cell and MDA-MB-231 cells were maintained in DMEM media supplemented with 10% v/v FBS. On reaching confluency (1×10^6 cells/mL in a 25 mL flask), 1×10^6 cells were seeded in 25 mL of fresh supplemented media. The cells were incubated under humidified air containing 5% CO2 at 37° C. Cell density was kept below 1×10^6 cells/mL to ensure exponential growth and to avoid differentiation. Cells were only used between passages 5 and 15 to prevent cell differentiation.
(§2) A standard MTT assay was used to determine the cell viability at 48 hr after an artemisinin derivative was added to the culture medium. Cell viability was above 95% for all experiments. The viable cell count was based on trypan blue exclusion from the cells and was performed in a hemocytometer using a light microscope. To 50 μL of cells was added 20 μL of trypan blue 0.4% solution and 30 μL D-Hanks solution was counted. During experiments cells were exposed to drug stock solutions which were made up in 100% DMSO and the final solvent concentration was 1% v/v in each incubation. Each concentration in every experiment was carried out in triplicate.
(§3) BT474 (2000 cells/100 μL) or MDA-MB-231 cells (7500 cells/100 μL) were seeded on a 96 well plate respectively, and incubated for 24 hr at 37° C. The medium was removed, and replaced it with 200 μL of the complete medium containing artemisinin derivatives. The cells were incubated for 48 hr at 37° C., the medium was removed, and replaced it with 100 μL of fresh complete medium. 10 μL of […] MTT stock solution (D-Hanks) was added to each well. After incubating for 3 hr at 37° C., formazan crystals were solubilized in 50 μL of DMSO and absorbance was measured at 570 nm with BIO-RAD model 680 microplate reader. All data were analyzed using Microsoft Excel. IC50 values were determined with Graphpad Prism 5.
(In general: Formazan colour is commonly taken as a measure of viable cells.)

The subject of a further data set is NCI 60 cell lines. The conditions noted are these: panel of NCI 60 cell lines; cited from earlier work.
The next data set relates to MDA-MB-231 cells. The experiment in a line: MTT cell viability assay, MDA-MB-231 breast cancer cells. The format is cell-based. The conditions noted are these: for pIC50: read-out: MDA MB 231 IC50; for Selectivity MDA MB 231: values match MCF-10A IC50 / MDA MB 231 IC50, formula not given. The procedure:
as §1, §2, §3

Another data set has as its system MCF-10A. The experiment in a line: MCF-10A IC50. It is filed as cell-based.
In data set [1] the test system is PCa cell lines DU 145, PC-3, C4-2, and LNCaP. The experiment in a line: Cytotoxicity against a panel of four PCa cell lines. The format is cell-based. The conditions noted are these: DU 145, PC-3, C4-2, LNCaP. The procedure: The cytotoxicity of artemisinin dimers, dimer-2Py, was evaluated against a panel of four PCa cell lines, DU 145, PC-3, C4-2, and LNCaP.
Where [2] appears, read: Homo sapiens, BT-474, MTT, 48 hr incubation.
[3] abbreviates: Homo sapiens, MDA-MB-231, MTT, 48 hr incubation.

pIC50: −log10 of the molar value. Read-outs that look alike come from different tables or passages of the source. A value given as a limit tells only on which side of the number the result lay.

With `C[C@H]1[C@@H](CC(COC(=O)CCC(=O)O)C[C@H]2O[C@@H]3O[C@@]4(C)CC[C@H]5[C@H](C)CC[C@@H]([C@H]2C)[C@@]35OO4)O[C@@H]2O[C@@]3(C)CC[C@H]4[C@H](C)CC[C@@H]1[C@@]24OO3` (stereo partly shown) [Artemisinin dimer succinate, reference compound], the pIC50 (in general, the negative decadic logarithm of the IC50, by convention in mol/L) in the data set with BT474 cells (MTT, 48 hr incubation) was 7.00; in the data set with MDA-MB-231 cells (MTT, 48 hr incubation), 6.62; in the data set with MCF-10A, 4.68. The “Selectivity BT474” value in the data set on BT474 cells is reported as 210. Further, the “times more potent than artemisinin monomers such as artesunate” value in the data set with NCI 60 cell lines was “up to 500 times”. In addition, the “Selectivity MDA MB 231” value in the data set with MDA-MB-231 cells amounted to 88.

Take `C[C@H]1[C@H](OC(=O)CCC(=O)O)O[C@@H]2O[C@@]3(C)CC[C@H]4[C@H](C)CC[C@@H]1[C@@]24OO3` [Artesunate, reference compound]: the pIC50 with BT474 cells (Homo sapiens, BT-474, 48 h) is 5.11; in the data set on MDA-MB-231 cells (Homo sapiens, MDA-MB-231, 48 h), 4.34; with MCF-10A (Homo sapiens, MCF-10A), 4.68. In addition, the “Selectivity BT474” value in the data set with BT474 cells is on record as 2.7. Besides, the “Selectivity MDA MB 231” value in the data set on MDA-MB-231 cells was 0.46.

In the case of `COC(=O)CNC(=O)C(CC[C@H]1O[C@@H]2OC3(C)CCC4[C@H](C)CCC([C@H]1C)[C@]42OO3)N(CCC[C@H]1O[C@@H]2OC3(C)CCC4[C@H](C)CCC([C@H]1C)[C@]42OO3)C(=O)C(F)(F)F` (stereo partly shown) [Compound 6a], the negative-log IC50 (pIC50) in the data set with BT474 cells (setting [2]) was 5.18; in the data set on MDA-MB-231 cells (setting [3]) it was 4.72; with MCF-10A (Homo sapiens, MCF-10A) it was 5.34. Also, the “Selectivity BT474” value with BT474 cells is given as 0.70. Moreover, in the data set with MDA-MB-231 cells, the “Selectivity MDA MB 231” value came out at 0.24.

For the compound `COC(=O)CNC(=O)C(CC[C@H]1O[C@@H]2OC3(C)CCC4[C@H](C)CCC([C@H]1C)[C@]42OO3)N(CCC[C@H]1O[C@@H]2OC3(C)CCC4[C@H](C)CCC([C@H]1C)[C@]42OO3)C(=O)c1ccccc1` (stereo partly shown) [Compound 6b], the pIC50 in the data set with BT474 cells (setting [2]) is 6.10; in the data set with MDA-MB-231 cells (setting [3]), 4.96; in the data set with MCF-10A (Homo sapiens, MCF-10A), 5.30. Further, in the data set with BT474 cells, the “Selectivity BT474” value came to 6.3. In addition, the “Selectivity MDA MB 231” value with MDA-MB-231 cells was found to be 0.45.

`COC(=O)CNC(=O)C(CC[C@H]1O[C@@H]2OC3(C)CCC4[C@H](C)CCC([C@H]1C)[C@]42OO3)N(CCC[C@H]1O[C@@H]2OC3(C)CCC4[C@H](C)CCC([C@H]1C)[C@]42OO3)C(=O)c1cccc(OC)c1OC` (stereo partly shown) [Compound 6c]: the pIC50 in the data set on BT474 cells (setting [2]) is 5.24; in the data set on MDA-MB-231 cells (setting [3]), 4.92; in the data set with MCF-10A (Homo sapiens, MCF-10A), 5.24. The “Selectivity BT474” value with BT474 cells is 0.98. The “Selectivity MDA MB 231” value in the data set with MDA-MB-231 cells turned out to be 0.48.

With `COC(=O)CNC(=O)C(CC[C@H]1O[C@@H]2OC3(C)CCC4[C@H](C)CCC([C@H]1C)[C@]42OO3)N(CCC[C@H]1O[C@@H]2OC3(C)CCC4[C@H](C)CCC([C@H]1C)[C@]42OO3)C(=O)c1ccc(N(C)C)cc1` (stereo partly shown) [Compound 6d], the pIC50 is 6.06 in the data set with BT474 cells (setting [2]); 4.92 in the data set on MDA-MB-231 cells (setting [3]); 4.82 in the data set with MCF-10A (Homo sapiens, MCF-10A). Besides, in the data set on BT474 cells, the “Selectivity BT474” value was 17. Also, the “Selectivity MDA MB 231” value in the data set on MDA-MB-231 cells amounted to 1.3.

`COC(=O)CNC(=O)C(CC[C@H]1O[C@@H]2OC3(C)CCC4[C@H](C)CCC([C@H]1C)[C@]42OO3)N(CCC[C@H]1O[C@@H]2OC3(C)CCC4[C@H](C)CCC([C@H]1C)[C@]42OO3)C(=O)c1cnccn1` (stereo partly shown) [Compound 6e]: the negative logarithm of the IC50 (pIC50) in the data set on BT474 cells (setting [2]) was 5.77; in the data set with MDA-MB-231 cells (setting [3]), 4.59; with MCF-10A (Homo sapiens, MCF-10A), 4.60. Moreover, in the data set with BT474 cells, the “Selectivity BT474” value stood at 15. Moreover, the “Selectivity MDA MB 231” value in the data set on MDA-MB-231 cells worked out at 0.96.

As for `COC(=O)CNC(=O)C(CC[C@H]1O[C@@H]2OC3(C)CCC4[C@H](C)CCC([C@H]1C)[C@]42OO3)N(CCC[C@H]1O[C@@H]2OC3(C)CCC4[C@H](C)CCC([C@H]1C)[C@]42OO3)c1ccc([N+](=O)[O-])cc1` (stereo partly shown) [Compound 6f], the negative logarithm of the IC50 (pIC50) in the data set on BT474 cells (setting [2]) was 7.02; in the data set on MDA-MB-231 cells (setting [3]), 5.92; with MCF-10A (Homo sapiens, MCF-10A), 4.33. Besides, the “Selectivity BT474” value with BT474 cells turned out to be 490. Further, the “times less potent than artemisinin dimer succinate” value in the data set on MDA-MB-231 cells (MDA-MB-231) turned out to be 5 times. Also, the “Selectivity MDA MB 231” value in the data set on MDA-MB-231 cells is 39.

As for `COC(=O)CNC(=O)C(CC[C@H]1O[C@@H]2OC3(C)CCC4[C@H](C)CCC([C@H]1C)[C@]42OO3)N(C(=O)c1ccccc1)C(C)C` (stereo partly shown) [Compound 7], the negative logarithm of the IC50 (pIC50) in the data set on BT474 cells (setting [2]) is < 4.00; in the data set with MDA-MB-231 cells (setting [3]), < 4.00; in the data set on MCF-10A (Homo sapiens, MCF-10A) it was < 4.00.

On to `C[C@H]1[C@@H](O)O[C@@H]2O[C@@]3(C)CC[C@H]4[C@H](C)CC[C@@H]1[C@@]24OO3` [dihydroartemisinin], for which the cytotoxicity result in data set [1] is given as “negligible activity”.
